# Test system: EM-2;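 further: growth inhibition of EM-2 cells, read out with a cell viability assay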
# Assay: cells
# Type: functional, cell-based, Homo sapiens
# Conditions: Homo sapiens, EM-2
# Description: SANGER: Inhibition of human EM-2 cell growth in a cell viability assay.
row,Structure (SMILES),IC50
1,Cn1cnc2c(F)c(Nc3ccc(Br)cc3Cl)c(C(=O)NOCCO)cc21 [SELUMETINIB],0.512 µM

# Test system: ES3;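 further: growth inhibition of ES3 cells, read out with a cell viability assay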
# Assay: cells
# Type: functional, cell-based, Homo sapiens
# Conditions: Homo sapiens, ES3
# Description: SANGER: Inhibition of human ES3 cell growth in a cell viability assay.
row,Structure (SMILES),IC50
1,Cn1cnc2c(F)c(Nc3ccc(Br)cc3Cl)c(C(=O)NOCCO)cc21 [SELUMETINIB],> 4 µM

# Test system: JVM-2;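 further: growth inhibition of JVM-2 cells determined by a cell viability assay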
# Assay: cells
# Type: functional, cell-based, Homo sapiens
# Conditions: Homo sapiens, JVM-2
# Description: SANGER: Inhibition of human JVM-2 cell growth in a cell viability assay.
row,Structure (SMILES),IC50
1,Cn1cnc2c(F)c(Nc3ccc(Br)cc3Cl)c(C(=O)NOCCO)cc21 [SELUMETINIB],> 4 µM

# Test system: MV4-11;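 further: cell viability readout measuring growth inhibition of human MV-4-11 cells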
# Assay: cells
# Type: functional, cell-based, Homo sapiens, MV-4-11
# Conditions: Homo sapiens, MV4-11
# Description: SANGER: Inhibition of human MV-4-11 cell growth in a cell viability assay.
row,Structure (SMILES),IC50
1,Cn1cnc2c(F)c(Nc3ccc(Br)cc3Cl)c(C(=O)NOCCO)cc21 [SELUMETINIB],0.575 µM

# Test system: BV-173
# Assay: cells
# Type: functional, cell-based, Homo sapiens
# Conditions: Homo sapiens, BV-173
# Description: SANGER: Inhibition of human BV-173 cell growth in a cell viability assay.
row,Structure (SMILES),IC50
1,Cn1cnc2c(F)c(Nc3ccc(Br)cc3Cl)c(C(=O)NOCCO)cc21 [SELUMETINIB],0.748 µM

# Test system: SH-4;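 further: growth inhibition of SH-4 cells, read out with a cell viability assay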
# Assay: cells
# Type: functional, cell-based, Homo sapiens
# Conditions: Homo sapiens, SH-4
# Description: SANGER: Inhibition of human SH-4 cell growth in a cell viability assay.
row,Structure (SMILES),IC50
1,Cn1cnc2c(F)c(Nc3ccc(Br)cc3Cl)c(C(=O)NOCCO)cc21 [SELUMETINIB],0.166 µM

# Test system: MS-1
# Assay: cells
# Type: functional, cell-based, Homo sapiens
# Conditions: Homo sapiens, MS-1
# Description: SANGER: Inhibition of human MS-1 cell growth in a cell viability assay.
row,Structure (SMILES),IC50
1,Cn1cnc2c(F)c(Nc3ccc(Br)cc3Cl)c(C(=O)NOCCO)cc21 [SELUMETINIB],> 4 µM

# Test system: MFM-223
# Assay: cells
# Type: functional, cell-based, Homo sapiens
# Conditions: Homo sapiens, MFM-223
# Description: SANGER: Inhibition of human MFM-223 cell growth in a cell viability assay.
row,Structure (SMILES),IC50
1,Cn1cnc2c(F)c(Nc3ccc(Br)cc3Cl)c(C(=O)NOCCO)cc21 [SELUMETINIB],> 4 µM

# Test system: HCC 2998;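 further: growth inhibition of human HCC2998 cells, measured with a cell viability read-out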
# Assay: cells
# Type: functional, cell-based, Homo sapiens
# Conditions: Homo sapiens, HCC 2998
# Description: SANGER: Inhibition of human HCC2998 cell growth in a cell viability assay.
row,Structure (SMILES),IC50
1,Cn1cnc2c(F)c(Nc3ccc(Br)cc3Cl)c(C(=O)NOCCO)cc21 [SELUMETINIB],0.269 µM

# Test system: OMC-1;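 further: growth inhibition of the OMC-1 cell line, measured by a cell viability assay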
# Assay: cells
# Type: functional, cell-based, Homo sapiens
# Conditions: Homo sapiens, OMC-1
# Description: SANGER: Inhibition of human OMC-1 cell growth in a cell viability assay.
row,Structure (SMILES),IC50
1,Cn1cnc2c(F)c(Nc3ccc(Br)cc3Cl)c(C(=O)NOCCO)cc21 [SELUMETINIB],> 4 µM

# Test system: LS-513
# Assay: cells
# Type: functional, cell-based, Homo sapiens
# Conditions: Homo sapiens, LS-513
# Description: SANGER: Inhibition of human LS-513 cell growth in a cell viability assay.
row,Structure (SMILES),IC50
1,Cn1cnc2c(F)c(Nc3ccc(Br)cc3Cl)c(C(=O)NOCCO)cc21 [SELUMETINIB],1.42 µM

# Test system: ETK-1;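 further: growth inhibition of human ETK-1 cells, read out with a cell viability assay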
# Assay: cells
# Type: functional, cell-based, Homo sapiens
# Conditions: Homo sapiens, ETK-1
# Description: SANGER: Inhibition of human ETK-1 cell growth in a cell viability assay.
row,Structure (SMILES),IC50
1,Cn1cnc2c(F)c(Nc3ccc(Br)cc3Cl)c(C(=O)NOCCO)cc21 [SELUMETINIB],> 4 µM

# Test system: NCI-H1355;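 further: growth inhibition of human NCI-H1355 cells, read out by a cell viability assay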
# Assay: cells
# Type: functional, cell-based, Homo sapiens
# Conditions: Homo sapiens, NCI-H1355
# Description: SANGER: Inhibition of human NCI-H1355 cell growth in a cell viability assay.
row,Structure (SMILES),IC50
1,Cn1cnc2c(F)c(Nc3ccc(Br)cc3Cl)c(C(=O)NOCCO)cc21 [SELUMETINIB],> 4 µM

# Test system: IST-SL1;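 further: growth inhibition of human IST-SL1 cells, read out with a cell viability assay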
# Assay: cells
# Type: functional, cell-based, Homo sapiens
# Conditions: Homo sapiens, IST-SL1
# Description: SANGER: Inhibition of human IST-SL1 cell growth in a cell viability assay.
row,Structure (SMILES),IC50
1,Cn1cnc2c(F)c(Nc3ccc(Br)cc3Cl)c(C(=O)NOCCO)cc21 [SELUMETINIB],> 4 µM

# Test system: RH-1;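 further: growth inhibition of human RH-1 cells, read out with a cell viability assay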
# Assay: cells
# Type: functional, cell-based, Homo sapiens
# Conditions: Homo sapiens, RH-1
# Description: SANGER: Inhibition of human RH-1 cell growth in a cell viability assay.
row,Structure (SMILES),IC50
1,Cn1cnc2c(F)c(Nc3ccc(Br)cc3Cl)c(C(=O)NOCCO)cc21 [SELUMETINIB],> 4 µM

# Test system: LB2518-MEL;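 further: growth inhibition of human LB2518-MEL cells, measured with a cell viability assay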
# Assay: cells
# Type: functional, cell-based, Homo sapiens
# Conditions: Homo sapiens, LB2518-MEL
# Description: SANGER: Inhibition of human LB2518-MEL cell growth in a cell viability assay.
row,Structure (SMILES),IC50
1,Cn1cnc2c(F)c(Nc3ccc(Br)cc3Cl)c(C(=O)NOCCO)cc21 [SELUMETINIB],0.0938 µM

# Test system: KGN;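 further: growth inhibition of KGN cells, read out with a cell viability assay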
# Assay: cells
# Type: functional, cell-based, Homo sapiens
# Conditions: Homo sapiens, KGN
# Description: SANGER: Inhibition of human KGN cell growth in a cell viability assay.
row,Structure (SMILES),IC50
1,Cn1cnc2c(F)c(Nc3ccc(Br)cc3Cl)c(C(=O)NOCCO)cc21 [SELUMETINIB],> 4 µM

# Test system: NMC-G1;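 further: growth inhibition of the NMC-G1 cell line, measured with a cell viability read-out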
# Assay: cells
# Type: functional, cell-based, Homo sapiens
# Conditions: Homo sapiens, NMC-G1
# Description: SANGER: Inhibition of human NMC-G1 cell growth in a cell viability assay.
row,Structure (SMILES),IC50
1,Cn1cnc2c(F)c(Nc3ccc(Br)cc3Cl)c(C(=O)NOCCO)cc21 [SELUMETINIB],> 4 µM

# Test system: SNU-C2B;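 further: cell viability readout used to measure compound-driven suppression of SNU-C2B cell proliferation, IC50 marking half-maximal growth inhibition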
# Assay: cells
# Type: functional, cell-based, Homo sapiens
# Conditions: Homo sapiens, SNU-C2B
# Description: SANGER: Inhibition of human SNU-C2B cell growth in a cell viability assay.
row,Structure (SMILES),IC50
1,Cn1cnc2c(F)c(Nc3ccc(Br)cc3Cl)c(C(=O)NOCCO)cc21 [SELUMETINIB],> 4 µM

# Test system: EW-11;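 further: growth inhibition of human EW-11 cells, measured with a cell viability assay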
# Assay: cells
# Type: functional, cell-based, Homo sapiens
# Conditions: Homo sapiens, EW-11
# Description: SANGER: Inhibition of human EW-11 cell growth in a cell viability assay.
row,Structure (SMILES),IC50
1,Cn1cnc2c(F)c(Nc3ccc(Br)cc3Cl)c(C(=O)NOCCO)cc21 [SELUMETINIB],> 4 µM

# Test system: NCI-N87;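 further: growth inhibition of human NCI-N87 cells, read out with a cell viability assay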
# Assay: cells
# Type: functional, cell-based, Homo sapiens
# Conditions: Homo sapiens, NCI-N87
# Description: SANGER: Inhibition of human NCI-N87 cell growth in a cell viability assay.
row,Structure (SMILES),IC50
1,Cn1cnc2c(F)c(Nc3ccc(Br)cc3Cl)c(C(=O)NOCCO)cc21 [SELUMETINIB],> 4 µM

# Test system: DMS-114
# Assay: cells
# Type: functional, cell-based, Homo sapiens
# Conditions: Homo sapiens, DMS-114
row,Structure (SMILES),IC50
1,Cn1cnc2c(F)c(Nc3ccc(Br)cc3Cl)c(C(=O)NOCCO)cc21 [SELUMETINIB],> 4 µM

# Test system: SK-NEP-1;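 further: growth inhibition of human SK-NEP-1 cells, read out by a cell viability assay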
# Assay: cells
# Type: functional, cell-based, Homo sapiens
# Conditions: Homo sapiens, SK-NEP-1
# Description: SANGER: Inhibition of human SK-NEP-1 cell growth in a cell viability assay.
row,Structure (SMILES),IC50
1,Cn1cnc2c(F)c(Nc3ccc(Br)cc3Cl)c(C(=O)NOCCO)cc21 [SELUMETINIB],> 4 µM

# Test system: C2BBe1;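 further: growth inhibition of C2BBe1 cells, read out through a viability assay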
# Assay: cells
# Type: functional, cell-based, Homo sapiens
# Conditions: Homo sapiens, C2BBe1
# Description: SANGER: Inhibition of human C2BBe1 cell growth in a cell viability assay.
row,Structure (SMILES),IC50
1,Cn1cnc2c(F)c(Nc3ccc(Br)cc3Cl)c(C(=O)NOCCO)cc21 [SELUMETINIB],0.273 µM

# Test system: EW-3;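 further: cell viability assay read-out, IC50 reflects inhibition of growth of the EW-3 cells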
# Assay: cells
# Type: functional, cell-based, Homo sapiens
# Conditions: Homo sapiens, EW-3
# Description: SANGER: Inhibition of human EW-3 cell growth in a cell viability assay.
row,Structure (SMILES),IC50
1,Cn1cnc2c(F)c(Nc3ccc(Br)cc3Cl)c(C(=O)NOCCO)cc21 [SELUMETINIB],2.93 µM

# Test system: DEL;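 further: growth inhibition of the human DEL cell line, read out with a cell viability assay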
# Assay: cells
# Type: functional, cell-based, Homo sapiens
# Conditions: Homo sapiens, DEL
# Description: SANGER: Inhibition of human DEL cell growth in a cell viability assay.
row,Structure (SMILES),IC50
1,Cn1cnc2c(F)c(Nc3ccc(Br)cc3Cl)c(C(=O)NOCCO)cc21 [SELUMETINIB],> 4 µM

# Test system: MN-60;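 further: growth inhibition of the MN-60 cell line, determined with a cell viability assay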
# Assay: cells
# Type: functional, cell-based, Homo sapiens
# Conditions: Homo sapiens, MN-60
# Description: SANGER: Inhibition of human MN-60 cell growth in a cell viability assay.
row,Structure (SMILES),IC50
1,Cn1cnc2c(F)c(Nc3ccc(Br)cc3Cl)c(C(=O)NOCCO)cc21 [SELUMETINIB],> 4 µM

# Test system: KARPAS-45;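 further: inhibition of cell line growth, read out through a viability assay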
# Assay: cells
# Type: functional, cell-based, Homo sapiens
# Conditions: Homo sapiens, KARPAS-45
# Description: SANGER: Inhibition of human KARPAS-45 cell growth in a cell viability assay.
row,Structure (SMILES),IC50
1,Cn1cnc2c(F)c(Nc3ccc(Br)cc3Cl)c(C(=O)NOCCO)cc21 [SELUMETINIB],2.08 µM

# Test system: SK-N-DZ;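 further: growth inhibition of the cancer cell line, read out through a viability assay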
# Assay: cells
# Type: functional, cell-based, Homo sapiens
# Conditions: Homo sapiens, SK-N-DZ
# Description: SANGER: Inhibition of human SK-N-DZ cell growth in a cell viability assay.
row,Structure (SMILES),IC50
1,Cn1cnc2c(F)c(Nc3ccc(Br)cc3Cl)c(C(=O)NOCCO)cc21 [SELUMETINIB],> 4 µM

# Test system: LB831-BLC;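 further: growth inhibition of LB831-BLC cells, read out with a cell viability assay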
# Assay: cells
# Type: functional, cell-based, Homo sapiens
# Conditions: Homo sapiens, LB831-BLC
# Description: SANGER: Inhibition of human LB831-BLC cell growth in a cell viability assay.
row,Structure (SMILES),IC50
1,Cn1cnc2c(F)c(Nc3ccc(Br)cc3Cl)c(C(=O)NOCCO)cc21 [SELUMETINIB],> 4 µM

# Test system: KNS-42;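 further: growth inhibition of KNS-42 cells, read out with a cell viability assay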
# Assay: cells
# Type: functional, cell-based, Homo sapiens
# Conditions: Homo sapiens, KNS-42
# Description: SANGER: Inhibition of human KNS-42 cell growth in a cell viability assay.
row,Structure (SMILES),IC50
1,Cn1cnc2c(F)c(Nc3ccc(Br)cc3Cl)c(C(=O)NOCCO)cc21 [SELUMETINIB],> 4 µM

# Test system: EW-13;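 further: growth inhibition of EW-13 cells, read out with a cell viability assay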
# Assay: cells
# Type: functional, cell-based, Homo sapiens
# Conditions: Homo sapiens, EW-13
# Description: SANGER: Inhibition of human EW-13 cell growth in a cell viability assay.
row,Structure (SMILES),IC50
1,Cn1cnc2c(F)c(Nc3ccc(Br)cc3Cl)c(C(=O)NOCCO)cc21 [SELUMETINIB],> 4 µM

# Test system: NCI-H526;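 further: growth inhibition of the human NCI-H526 cell line, measured by a cell viability assay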
# Assay: cells
# Type: functional, cell-based, Homo sapiens
# Conditions: Homo sapiens, NCI-H526
# Description: SANGER: Inhibition of human NCI-H526 cell growth in a cell viability assay.
row,Structure (SMILES),IC50
1,Cn1cnc2c(F)c(Nc3ccc(Br)cc3Cl)c(C(=O)NOCCO)cc21 [SELUMETINIB],> 4 µM

# Test system: HCE-T;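 further: cell viability assay read-out, reporting inhibition of HCE-T cell growth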
# Assay: cells
# Type: functional, cell-based, Homo sapiens
# Conditions: Homo sapiens, HCE-T
# Description: SANGER: Inhibition of human HCE-T cell growth in a cell viability assay.
row,Structure (SMILES),IC50
1,Cn1cnc2c(F)c(Nc3ccc(Br)cc3Cl)c(C(=O)NOCCO)cc21 [SELUMETINIB],0.971 µM

# Test system: D-502MG
# Assay: cells
# Type: functional, cell-based, Homo sapiens
# Conditions: Homo sapiens, D-502MG
# Description: SANGER: Inhibition of human D-502MG cell growth in a cell viability assay.
row,Structure (SMILES),IC50
1,Cn1cnc2c(F)c(Nc3ccc(Br)cc3Cl)c(C(=O)NOCCO)cc21 [SELUMETINIB],> 4 µM

# Test system: RPMI-8226
# Assay: cells
# Type: functional, cell-based, Homo sapiens
# Conditions: Homo sapiens, RPMI-8226
# Description: SANGER: Inhibition of human RPMI-8226 cell growth in a cell viability assay.
row,Structure (SMILES),IC50
1,Cn1cnc2c(F)c(Nc3ccc(Br)cc3Cl)c(C(=O)NOCCO)cc21 [SELUMETINIB],0.74 µM

# Test system: DOHH-2;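 further: growth inhibition of human DOHH-2 cells, read out with a cell viability assay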
# Assay: cells
# Type: functional, cell-based, Homo sapiens
# Conditions: Homo sapiens, DOHH-2
# Description: SANGER: Inhibition of human DOHH-2 cell growth in a cell viability assay.
row,Structure (SMILES),IC50
1,Cn1cnc2c(F)c(Nc3ccc(Br)cc3Cl)c(C(=O)NOCCO)cc21 [SELUMETINIB],> 4 µM

# Test system: LAMA-84;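 further: growth inhibition of LAMA-84 cells, read out with a cell viability assay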
# Assay: cells
# Type: functional, cell-based, Homo sapiens
# Conditions: Homo sapiens, LAMA-84
# Description: SANGER: Inhibition of human LAMA-84 cell growth in a cell viability assay.
row,Structure (SMILES),IC50
1,Cn1cnc2c(F)c(Nc3ccc(Br)cc3Cl)c(C(=O)NOCCO)cc21 [SELUMETINIB],0.456 µM

# Test system: LB771-HNC;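 further: growth inhibition of LB771-HNC human cells, read out with a cell viability assay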
# Assay: cells
# Type: functional, cell-based, Homo sapiens
# Conditions: Homo sapiens, LB771-HNC
# Description: SANGER: Inhibition of human LB771-HNC cell growth in a cell viability assay.
row,Structure (SMILES),IC50
1,Cn1cnc2c(F)c(Nc3ccc(Br)cc3Cl)c(C(=O)NOCCO)cc21 [SELUMETINIB],> 4 µM

# Test system: CAS-1;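 further: growth inhibition of CAS-1 cells, measured with a cell viability assay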
# Assay: cells
# Type: functional, cell-based, Homo sapiens
# Conditions: Homo sapiens, CAS-1
# Description: SANGER: Inhibition of human CAS-1 cell growth in a cell viability assay.
row,Structure (SMILES),IC50
1,Cn1cnc2c(F)c(Nc3ccc(Br)cc3Cl)c(C(=O)NOCCO)cc21 [SELUMETINIB],> 4 µM

# Test system: P30-OHK;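 further: growth inhibition of the P30-OHK cell line, read out with a cell viability assay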
# Assay: cells
# Type: functional, cell-based, Homo sapiens
# Conditions: Homo sapiens, P30-OHK
# Description: SANGER: Inhibition of human P30-OHK cell growth in a cell viability assay.
row,Structure (SMILES),IC50
1,Cn1cnc2c(F)c(Nc3ccc(Br)cc3Cl)c(C(=O)NOCCO)cc21 [SELUMETINIB],> 4 µM

# Test system: HH
# Assay: cells
# Type: functional, cell-based, Homo sapiens
# Conditions: Homo sapiens, HH
# Description: SANGER: Inhibition of human HH cell growth in a cell viability assay.
row,Structure (SMILES),IC50
1,Cn1cnc2c(F)c(Nc3ccc(Br)cc3Cl)c(C(=O)NOCCO)cc21 [SELUMETINIB],> 4 µM

# Test system: JVM-3;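 further: growth inhibition of human JVM-3 cells, read out with a cell viability assay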
# Assay: cells
# Type: functional, cell-based, Homo sapiens
# Conditions: Homo sapiens, JVM-3
# Description: SANGER: Inhibition of human JVM-3 cell growth in a cell viability assay.
row,Structure (SMILES),IC50
1,Cn1cnc2c(F)c(Nc3ccc(Br)cc3Cl)c(C(=O)NOCCO)cc21 [SELUMETINIB],0.701 µM

# Test system: ALL-PO;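 further: growth inhibition of ALL-PO cells, read out by a cell viability assay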
# Assay: cells
# Type: functional, cell-based, Homo sapiens
# Conditions: Homo sapiens, ALL-PO
# Description: SANGER: Inhibition of human ALL-PO cell growth in a cell viability assay.
row,Structure (SMILES),IC50
1,Cn1cnc2c(F)c(Nc3ccc(Br)cc3Cl)c(C(=O)NOCCO)cc21 [SELUMETINIB],> 4 µM

# Test system: LS-411N
# Assay: cells
# Type: functional, cell-based, Homo sapiens
# Conditions: Homo sapiens, LS-411N
row,Structure (SMILES),IC50
1,Cn1cnc2c(F)c(Nc3ccc(Br)cc3Cl)c(C(=O)NOCCO)cc21 [SELUMETINIB],> 4 µM

# Test system: ATN-1;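 further: growth inhibition of human ATN-1 cells, read out with a cell viability assay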
# Assay: cells
# Type: functional, cell-based, Homo sapiens
# Conditions: Homo sapiens, ATN-1
# Description: SANGER: Inhibition of human ATN-1 cell growth in a cell viability assay.
row,Structure (SMILES),IC50
1,Cn1cnc2c(F)c(Nc3ccc(Br)cc3Cl)c(C(=O)NOCCO)cc21 [SELUMETINIB],> 4 µM

# Test system: NB17;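 further: growth inhibition of NB17 cells, read out with a cell viability assay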
# Assay: cells
# Type: functional, cell-based, Homo sapiens
# Conditions: Homo sapiens, NB17
# Description: SANGER: Inhibition of human NB17 cell growth in a cell viability assay.
row,Structure (SMILES),IC50
1,Cn1cnc2c(F)c(Nc3ccc(Br)cc3Cl)c(C(=O)NOCCO)cc21 [SELUMETINIB],> 4 µM
